Assay: Body and adipose tissue weight of CL316,243-treated mice (trial 2, FIG. 3)
Type: in vivo
Description: FIG. 3 is a pair of bar graphs showing the body (FIG. 3a) and adipose (FIG. 3b) weights of mice treated with CL316,243 (hatched bars), and corresponding controls(solid bars).
In trial 2, male, inbred NON mice were fed a control with or without the presence of the β-3 adrenergic agonist CL316,243 for four weeks (at 0.001% CL316,243 by weight in the dietary chow).
In both studies, five treated and five control mice were used. Following the treatments and the killing of the mice, tissues and plasma were taken, chilled to −80 ° C. and shipped to the analysis laboratory at Lipomics Technologies in a frozen state.
Tables 7 and 8 show the concentrations of lipid metabolites present in adipose, plasma, heart and liver tissues in mice treated with CL3 16,243 and their controls. In Tables 5 and 7, the data are expressed as nanomoles per gram of tissue or plasma. In tables 6 and 8, the data are expressed as a percentage of total fatty acids within each lipid class.

C[C@H](Cc1ccc2c(c1)OC(C(=O)[O-])(C(=O)[O-])O2)NC[C@H](O)c1cccc(Cl)c1.[Na+].[Na+] [CL316,243]
mouse body weight (CL316,243 4 weeks vs controls (FIG. 3a)): significant decrease
adipose tissue weight (CL316,243 4 weeks vs controls (FIG. 3b)): significant decrease
